Measured values: ChEMBL document CHEMBL1201862, “PubChem BioAssay data set” (2004)
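Cells were grown in 96-well plates and exposed to each compound for 48 hours at five concentrations; endpoints were interpolated linearly between bracketing concentrations, or set to the highest concentration if not reached. GI50 = concentration required for 50% inhibition of growth.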 Active and inactive are the calls of the source. No stated cut-off is given here; in the data, active = GI50 up to about 1.1 µM and inactive = higher.

Assays:
Test in all cases: NCI anticancer screen, dose series, 48 h
[1] = test system: HOP-18
[2] = test system: KM-20L2
[3] = test system: DLD-1
[4] = test system: XF498
[5] = test system: SNB-78
[6] = test system: LXFL 529
[7] = test system: M19-MEL
[8] = test system: RXF 631
[9] = test system: DMS-273

CCc1c(OC(C)=O)c2c(NC3OC(COC(C)=O)C(OC(C)=O)C(OC(C)=O)C3OC(C)=O)nc(SC)nc2oc1=O (stereo not drawn)
GI50 [1]: > 100 µM (inactive) | GI50 [2]: > 100 µM (inactive) | GI50 [3]: > 100 µM (inactive) | GI50 [4]: > 100 µM (inactive) | GI50 [5]: > 100 µM (inactive) | GI50 [6]: > 100 µM (inactive) | GI50 [7]: > 100 µM (inactive) | GI50 [8]: > 100 µM (inactive)

S=C1CNC(=S)CN1
GI50 [1]: > 100 µM (inactive) | GI50 [2]: > 100 µM (inactive) | GI50 [3]: > 100 µM (inactive) | GI50 [5]: > 100 µM (inactive) | GI50 [9]: > 100 µM (inactive) | GI50 [6]: > 100 µM (inactive) | GI50 [7]: > 100 µM (inactive) | GI50 [8]: > 100 µM (inactive)

CNC(=O)C1CCc2nnc(-c3ccccc3)n21 (stereo not drawn)
GI50 [1]: > 100 µM (inactive) | GI50 [2]: > 100 µM (inactive) | GI50 [3]: > 100 µM (inactive) | GI50 [5]: > 100 µM (inactive) | GI50 [9]: > 100 µM (inactive) | GI50 [6]: > 100 µM (inactive) | GI50 [7]: > 100 µM (inactive) | GI50 [8]: > 100 µM (inactive)

CC(=O)Oc1ccc2c(c1)C(=O)c1nc(C)c(C)nc1C2=O
GI50 [1]: > 83.2 µM (inactive) | GI50 [2]: 34 µM (inactive) | GI50 [3]: 42.9 µM (inactive) | GI50 [4]: 43.9 µM (inactive) | GI50 [5]: 48.2 µM (inactive) | GI50 [9]: > 73.8 µM (inactive) | GI50 [6]: > 51.8 µM (inactive) | GI50 [7]: 4.61 µM (inactive) | GI50 [8]: 30.5 µM (inactive)

CC(C)=CC(=O)Cc1nc2ccc([N+](=O)[O-])cc2[nH]c1=O
GI50 [2]: > 100 µM (inactive) | GI50 [3]: 72.1 µM (inactive) | GI50 [4]: 41.3 µM (inactive) | GI50 [5]: > 100 µM (inactive) | GI50 [9]: > 100 µM (inactive) | GI50 [6]: 53.7 µM (inactive) | GI50 [7]: > 100 µM (inactive)

CN(C)/C(F)=P\C(F)(F)F (stereo not drawn)
GI50 [1]: > 100 µM (inactive) | GI50 [2]: > 100 µM (inactive) | GI50 [3]: > 100 µM (inactive) | GI50 [4]: > 100 µM (inactive) | GI50 [5]: > 100 µM (inactive) | GI50 [9]: > 100 µM (inactive) | GI50 [6]: > 100 µM (inactive) | GI50 [7]: > 100 µM (inactive)

COc1ccc(SS(=O)(=O)c2ccc(OC)cc2)cc1
GI50 [1]: 22.5 µM (inactive) | GI50 [2]: 21.3 µM (inactive) | GI50 [3]: 21.9 µM (inactive) | GI50 [5]: 53.7 µM (inactive) | GI50 [6]: 17.7 µM (inactive) | GI50 [7]: 19.5 µM (inactive) | GI50 [8]: 39 µM (inactive)

COC(=O)C1CC/C(=N/c2ccc(C)cc2C)N1 (stereo not drawn)
GI50 [1]: > 100 µM (inactive) | GI50 [2]: > 100 µM (inactive) | GI50 [3]: > 100 µM (inactive) | GI50 [4]: > 100 µM (inactive) | GI50 [5]: > 100 µM (inactive) | GI50 [9]: > 100 µM (inactive) | GI50 [6]: > 100 µM (inactive) | GI50 [7]: > 100 µM (inactive) | GI50 [8]: > 100 µM (inactive)

O=[N+]([O-])c1ccc(Cl)c(C2SCc3nc4ccccc4n32)c1 (stereo not drawn)
GI50 [1]: 5.87 µM (inactive) | GI50 [3]: 45.8 µM (inactive) | GI50 [5]: 34.6 µM (inactive) | GI50 [9]: 22.9 µM (inactive) | GI50 [6]: 34.8 µM (inactive) | GI50 [7]: 29.6 µM (inactive)

CN(C)CCn1cnc2ncccc2c1=O
GI50 [2]: > 100 µM (inactive) | GI50 [3]: > 100 µM (inactive) | GI50 [4]: > 100 µM (inactive) | GI50 [5]: > 100 µM (inactive) | GI50 [9]: > 100 µM (inactive) | GI50 [6]: > 100 µM (inactive) | GI50 [7]: > 100 µM (inactive)

O=C(NC1CCCC1=O)c1ccccc1 (stereo not drawn)
GI50 [2]: > 100 µM (inactive) | GI50 [3]: > 100 µM (inactive) | GI50 [4]: > 100 µM (inactive) | GI50 [5]: > 100 µM (inactive) | GI50 [9]: > 100 µM (inactive) | GI50 [7]: > 100 µM (inactive) | GI50 [8]: > 100 µM (inactive)

CC(=O)Nc1ccc(/C=C/C(=O)c2sc(-c3nc(C)c(C(=O)/C=C/c4ccc(NC(C)=O)cc4)s3)nc2C)cc1
GI50 [2]: > 100 µM (inactive) | GI50 [3]: > 100 µM (inactive) | GI50 [4]: > 100 µM (inactive) | GI50 [5]: > 100 µM (inactive) | GI50 [9]: > 100 µM (inactive) | GI50 [6]: > 100 µM (inactive) | GI50 [7]: > 100 µM (inactive) | GI50 [8]: > 100 µM (inactive)

Brc1ccc(-c2cc3c(cc2C2SCCS2)OCO3)cc1
GI50 [1]: 49.4 µM (inactive) | GI50 [2]: 26.7 µM (inactive) | GI50 [3]: 31.5 µM (inactive) | GI50 [4]: 14.2 µM (inactive) | GI50 [5]: 11.4 µM (inactive) | GI50 [9]: 35.6 µM (inactive) | GI50 [6]: 25.4 µM (inactive) | GI50 [7]: 41.7 µM (inactive)

CC(C)(C)c1ccc2c(c1)S(=O)(=O)Nc1ccc(Cl)cc1NS(=O)(=O)c1cc(C(C)(C)C)ccc1OCCOCCOCCO2
GI50 [1]: > 100 µM (inactive) | GI50 [3]: 85.7 µM (inactive) | GI50 [5]: 30.6 µM (inactive) | GI50 [9]: 56.8 µM (inactive) | GI50 [7]: 62.4 µM (inactive)

O=C(CC1(O)C(=O)Nc2ccccc21)c1ccc(F)cc1 (stereo not drawn)
GI50 [2]: > 100 µM (inactive) | GI50 [3]: > 100 µM (inactive) | GI50 [4]: > 100 µM (inactive) | GI50 [5]: > 100 µM (inactive) | GI50 [9]: > 100 µM (inactive) | GI50 [6]: > 100 µM (inactive) | GI50 [7]: > 100 µM (inactive)

Cc1ccc(N2C(=O)/C(=C/c3ccc(N(CCC#N)CCC#N)cc3C)N=C2c2cc([N+](=O)[O-])ccc2Cl)cc1
GI50 [1]: > 100 µM (inactive) | GI50 [3]: > 100 µM (inactive) | GI50 [5]: > 100 µM (inactive) | GI50 [9]: > 100 µM (inactive) | GI50 [6]: > 100 µM (inactive) | GI50 [7]: > 100 µM (inactive) | GI50 [8]: > 100 µM (inactive)

NC(=O)N=C(N(Cc1ccccc1)Cc1ccccc1)N(Cc1ccccc1)Cc1ccccc1
GI50 [2]: 2.69 µM (inactive) | GI50 [3]: 4.83 µM (inactive) | GI50 [5]: 25.1 µM (inactive) | GI50 [9]: 3.41 µM (inactive) | GI50 [6]: 4.8 µM (inactive) | GI50 [7]: > 100 µM (inactive)

O=C1NC(=O)C2C1C1C=C3c4ccccc4N(c4ccccc4)C32[C@H]2C(=O)NC(=O)[C@@H]12 (stereo partly drawn)
GI50 [1]: > 100 µM (inactive) | GI50 [2]: > 100 µM (inactive) | GI50 [3]: > 100 µM (inactive) | GI50 [5]: > 100 µM (inactive) | GI50 [9]: > 100 µM (inactive) | GI50 [6]: > 100 µM (inactive) | GI50 [7]: > 100 µM (inactive)

CC(c1ccc2c(c1)CCC1C2CC2OC23CC=CC(=O)[C@]13C)C1C[C@]2(C)O[C@]2(C)[C@H](O)O1 (stereo partly drawn)
GI50 [2]: 34.8 µM (inactive) | GI50 [4]: 56.9 µM (inactive) | GI50 [9]: 21.7 µM (inactive) | GI50 [6]: 10.6 µM (inactive) | GI50 [7]: 34.4 µM (inactive)

COc1ccc(/C=C2\CCc3ccccc3C2=O)cc1OC
GI50 [1]: 33 µM (inactive) | GI50 [2]: 30.8 µM (inactive) | GI50 [3]: 21.9 µM (inactive) | GI50 [4]: 17.7 µM (inactive) | GI50 [5]: 33.7 µM (inactive) | GI50 [6]: 25.7 µM (inactive) | GI50 [7]: 30.1 µM (inactive)

Nc1nc(=O)n([C@@H]2CC[C@H](CO)O2)cc1F
GI50 [1]: > 100 µM (inactive) | GI50 [2]: > 100 µM (inactive) | GI50 [3]: > 100 µM (inactive) | GI50 [5]: > 100 µM (inactive) | GI50 [9]: > 100 µM (inactive) | GI50 [6]: > 100 µM (inactive)

COc1cc(NS(C)(=O)=O)ccc1Nc1c2ccccc2nc2ccccc12 [AMSACRINE]
GI50 [1]: 0.7 µM (active) | GI50 [2]: 1.45 µM (inactive) | GI50 [3]: 2.79 µM (inactive) | GI50 [5]: 3.97 µM (inactive) | GI50 [9]: 0.0659 µM (active) | GI50 [6]: 3.32 µM (inactive) | GI50 [7]: 1.89 µM (inactive) | GI50 [8]: 0.509 µM (active)
